Source: patent US6852719B2, “Glucocorticoid receptor modulators” (Pfizer Inc., priority 2000, dated 2005)

Assays:
[1] = test system: IL-8 production in SW1353 human chondrosarcoma cells; assay: glucocorticoid inhibition of IL-1 induced IL-8 production in human chondrosarcoma cells; type: cell-based; conditions: 20 ng/ml IL-1 beta, 24 hours after IL-1 addition, ELISA, read-out: IC50, inhibition of IL-8 expression
Protocol: (§1) This assay, the glucocorticoid inhibition of IL-1 (Interleukin-1) induced MMP-1 (Matrix Metalloproteinase-1) and IL-8 (Interleukin-8) production in human chondrosarcoma cells, is conducted as follows: SW1353 human chondrosarcoma cells (obtained from ATCC) from passage 12 through passage 19 are used in a 96 well format assay. Cells are plated at confluence into 96 well plates in DMEM (Dulbecco's Modified Eagle Medium) with 10% fetal bovine serum and incubated at 37° C., 5% CO2. After 24 hours, serum containing media is removed and replaced with 200 ul/well DMEM containing 1 mg/L insulin, 2 g/L lactalbumin hydrosylate, and 0.5 mg/L ascorbic acid and returned to incubation at 37° C., 5% CO2. […] IL-8 production is assessed using the Quantikine human IL-8 ELISA kit from R & D Systems (D8050) on samples diluted 60-fold in RD5P Calibrator Diluent, following the manufacturer's protocol. The percent of the average IL-1 control is determined for the average of each of the triplicate samples following subtraction of the average signal from untreated cells. IC50's are determined from log linear plots of the percent of control versus the concentration of inhibitor. […] MMP-1 production is assessed via the Bio-Trak MMP-1 ELISA kit from Amersham (RPN2610) on 100 ul of neat sample following the manufacturer's protocol. […]

[2] = test system: MMP-1 production in SW1353 human chondrosarcoma cells; assay: glucocorticoid inhibition of IL-1 induced MMP-1 production in human chondrosarcoma cells; type: cell-based; conditions: 20 ng/ml IL-1 beta, 72 hours after IL-1 addition, ELISA, read-out: IC50, inhibition of MMP1 expression
Protocol: as §1

Structure (SMILES): C[C@@H]1C[C@H]2[C@@H]3CCC4=CC(=O)C=C[C@]4(C)[C@@]3(F)[C@@H](O)C[C@]2(C)[C@@]1(O)C(=O)CO [Dexamethasone, (11β, 16α)-9-fluoro-11,17,21-trihydroxy-16-methylpregna-1,4-diene-3,20-dione]
- IC50 [1]: 5 nM
- IC50 [2]: 5 nM
